Experiments:
[1] = Pharmacokinetics in female Balb/c mice; type: in vivo; settings: mouse, plasma, single intravenous injection / single oral administration; for bioavailability: read-out: Bioavailability F; for AUC: read-out: Concentration integral AUC; for half-life: read-out: Half-life T1/2 (converted)
Experimental: Objective: To test the pharmacokinetics of compounds in female Balb/c mice in vivo
Balb/c mice (female, 15-30 g, 7-9 weeks old, Shanghai Lingchang)
The pharmacokinetics profile of the compounds in rodent after intravenous injection and oral administrations was tested using a standard protocol. In the assay, the candidate compound was formulated into a clear solution and administrated to the mice through a single intravenous injection, and formulated into a uniform suspension and administrated to the mice through a single oral administration. […] The whole blood samples were collected within 24 hours, centrifuged at 3000 g at 4° C. for 15 minutes, and plasma samples were obtained by separating the supernatant. 20 times volume of acetonitrile solution containing an internal standard was added to precipitate proteins. After centrifugation, the supernatant was collected, to which an equal volume of water was added, and further centrifuged to collect the supernatant. The LC-MS/MS method was used to quantitatively analyze the plasma concentration, and the pharmacokinetics parameters, such as peak concentration, peak time, clearance rate, half-life, area under the curve, and bioavailability were calculated.

[2] = target: T1, Human adenosine A2A receptor (Homo sapiens, UniProt P29274); experiment: Human adenosine A2A receptor calcium flux assay; type: cell-based; settings: A2A stable CHO cell strain, antagonist mode against agonist NECA at EC80, FLIPR Fluo-4
T1 construct: host or cells: CHO
T1 sequence (P29274 whole entry): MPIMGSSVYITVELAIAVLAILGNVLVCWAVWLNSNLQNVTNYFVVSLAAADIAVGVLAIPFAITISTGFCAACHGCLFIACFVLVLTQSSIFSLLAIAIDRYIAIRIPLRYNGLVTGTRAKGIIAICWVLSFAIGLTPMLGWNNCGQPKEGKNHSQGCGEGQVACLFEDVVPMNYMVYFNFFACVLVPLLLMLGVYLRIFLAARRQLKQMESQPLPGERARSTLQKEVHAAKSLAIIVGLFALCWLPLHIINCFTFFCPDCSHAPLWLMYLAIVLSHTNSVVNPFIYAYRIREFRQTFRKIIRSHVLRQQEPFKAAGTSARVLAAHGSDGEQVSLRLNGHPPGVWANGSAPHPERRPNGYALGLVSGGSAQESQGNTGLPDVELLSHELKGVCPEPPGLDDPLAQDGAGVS
Experimental: Human adenosine A2A receptor calcium flux assay
A2A stable cell strain was constructed by Shanghai WuXi PharmaTech, and the host cell was CHO.
Fluo-4 Direct Kit (Invitrogen, Cat. No. F10471). After the fluorescent detection reagent (specifically binding to calcium ions and causing an increase in fluorescence signal) in the kit was incubated with the cells for a suitable period of time, the compound was added to stimulate the cells to cause changes in intracellular calcium flux, thereby causing changes in the fluorescent signal, which can reflect the strength of the agonistic or inhibitory activity of the compound.
F12+10% fetal bovine serum+geneticin 300 ug/ml+blasticidin 2 ug/ml Compound dilution buffer:
Hanks Balanced Salt Buffer (Invitrogen)+20 mM HEPES, configured before each use
The test compounds were dissolved in DMSO to prepare 10 mM stock solutions. The test compounds were diluted to 0.2 mM with DMSO, and the reference compound CGS-15943 was diluted to 0.015 mM with DMSO. Next, 10 points of three-fold serial dilutions were made with ECHO. 900 nl was transferred to the compound plate (Greiner-781280), and 30 ul of compound dilution buffer was added. The final starting concentration of the test compounds was 1 uM and CGS-15943 was 0.075 uM.
Cryopreserved A2A cells were resuscitated, and then resuspended in culture medium to 1×10^6 cells/ml. The suspension was seeded into 384-well polylysine-coated cell plates (Greiner-781946) at 20 μl/well and incubated overnight in a 5% CO2 incubator at 37° C.
The cell plate prepared the day before was taken out from the incubator, and 20 ul of 2× Fluo-4 Direct™ buffer was added to each well. The plate was incubated for 50 minutes in a 5% CO2 incubator at 37° C. and allowed to stand at room temperature for 10 minutes.
Dilution of agonist NECA: 10 points of three-fold serial dilutions were made with Echo for NECA from a starting concentration of 0.15 mM. 900 nL was then transferred to the corresponding compound plate; and then 30 μl of compound dilution buffer was added to the corresponding compound plate. The final starting concentration was 750 nM.
FLIPR instrument software was run. According to the programmed procedure, 10 ul of compound dilution buffer was added to the cell plate and the fluorescence signal was read. 10 ul of the agonist reference compound at the indicated concentration was then added to the cell plate and the fluorescent signal was read. After reading, the data was exported by the “Max-Min”, “Read 90 to Maximum allowed” method in the software, and the EC80 of the A2A cell line was calculated. The agonist was prepared at a concentration of 6× EC80. A 6× EC80 concentration of a reference compound agonist of the corresponding cells was prepared with a buffer solution, and added at 30 ul/well to the corresponding compound plate for use.
FLIPR instrument software was run. According to the programmed procedure, 10 μl of the test compounds and reference compound at an indicated concentration was added to the cell plate and the fluorescence signal was read. 10 ul of the reference compound agonist at a concentration of 6× EC80 was then added to the cell plate and the fluorescent signal was read. For the agonist detection of the compounds, the data was exported by the “Max-Min”, “Read 1 to 90” method in the software. For the antagonist detection of the compound, the data was exported by the “Max-Min”, “Read 90 to Maximum allowed” method in the software. Data were analyzed by GraphPad Prism 5.0 and the IC50 values of the test compounds were calculated.

Compound | IC50 [2] [nM] | other results
Cc1cc(-c2c(-c3cccc(F)c3)nc(N)n3ncnc23)cc(C(F)(F)F)n1 [Example A-2] | 0.38 | clearance [1]: 44.9 mL/min/kg; bioavailability [1]: 62.1%; AUC [1]: 5.93 µM·h; half-life [1]: 0.8 h
Cc1cc(-c2c(-c3ccccc3)nc(N)n3nc(C(F)(F)F)nc23)cc(C(F)(F)F)n1 [Example C-1] | 1.65 | clearance [1]: 11.7 mL/min/kg; bioavailability [1]: 40.5%; AUC [1]: 13.2 µM·h; half-life [1]: 3.95 h
Cc1cc(-c2c(-c3ccccc3)nc(N)n3nc(C(F)(F)F)nc23)cc(C)n1 [Example C-2] | 2.97 | clearance [1]: 8.76 mL/min/kg; bioavailability [1]: 50.4%; AUC [1]: 24.9 µM·h; half-life [1]: 2 h
Nc1nc(-c2ccccc2)c(-c2ccc3[nH]nnc3c2)c2nc(C3CC3)nn12 [Example C-26] | 4.34 | 
Nc1nc(-c2ccccc2)c(-c2ccc3[nH]nnc3c2)c2nc(C(F)(F)F)nn12 [Example C-29] | 1.5 | 
COc1ccccc1-c1nc(N)n2nc(C(F)(F)F)nc2c1-c1cc(C)nc(C(F)(F)F)c1 [Example C-31] | 14.1 | 
CCc1nc2c(-c3ccc4nn[nH]c4c3)c(-c3ccccc3OC)nc(N)n2n1 [Example C-32] | 38.9 | 
CCc1nc2c(-c3ccc4nn[nH]c4c3)c(-c3ccccc3F)nc(N)n2n1 [Example C-37] | 4.68 | 
CCc1nc2c(-c3ccc4nn[nH]c4c3)c(-c3ccc(F)cc3F)nc(N)n2n1 [Example C-38] | 15.3 | 
Cc1cc(-c2c(-c3ccc(F)cc3)nc(N)n3nc(C(F)(F)F)nc23)cc(Cl)n1 [Example C-41] | 4.99 | clearance [1]: 5.53 mL/min/kg; bioavailability [1]: 41.2%; AUC [1]: 25.1 µM·h; half-life [1]: 8.04 h
Nc1nc(-c2ccc(F)cc2)c(-c2ccc3[nH]nnc3c2)c2nc(C(F)(F)F)nn12 [Example C-42] | 10.1 | 
Nc1nc(-c2ccc(F)cc2)c(-c2ccc3nn[nH]c3c2)c2nc(CO)nn12 [Example C-45] | 2.06 | 
Cc1cc(-c2c(-c3ccc(C)o3)nc(N)n3nc(C(F)(F)F)nc23)cc(C(F)(F)F)n1 [Example C-47] | 13.6 | 
Cc1ccc(-c2nc(N)n3nc(C(F)(F)F)nc3c2-c2ccc3[nH]nnc3c2)o1 [Example C-48] | 11.3 | 
Cc1nc2c(-c3ccc4[nH]nnc4c3)c(-c3ccc(F)cc3F)nc(N)n2n1 [Example C-49] | 50 | 
Cc1cc(-c2c(-c3ccc(F)cc3)nc(N)n3nc(C)nc23)cc(Cl)n1 [Example C-54] | 1.08 | 
Cc1cc(-c2c(-c3ccc(F)cc3)nc(N)n3nc(C(F)(F)F)nc23)cc(C)n1 [Example C-57] | 4.49 | clearance [1]: 3.94 mL/min/kg; bioavailability [1]: 69.3%; AUC [1]: 71.7 µM·h; half-life [1]: 3.2 h

Compound | IC50 [2] [nM] | other results
Cc1nc2c(-c3ccc4[nH]nnc4c3)c(-c3ccc(F)cc3)nc(N)n2n1 [Example C-59] | 9.95 | 
Cc1cc(-c2c(-c3ccc(F)cc3)nc(N)n3nc(C#N)nc23)cc(C)n1 [Example C-62] | 0.83 | 
Cc1cc(-c2c(-c3ccn(C)n3)nc(N)n3nc(C(F)(F)F)nc23)cc(C(F)(F)F)n1 [Example C-63] | 7.22 | 
Cc1cc(-c2c(-c3ccn(C)n3)nc(N)n3nc(C)nc23)cc(C(F)(F)F)n1 [Example C-64] | 0.36 | 
Cc1cc(-c2c(-c3ccc(F)cc3)nc(N)n3nc(CN(C)C)nc23)cc(Cl)n1 [Example C-65] | 0.84 | 
Cc1cc(-c2c(-c3ccc(C)o3)nc(N)n3nc(CO)nc23)cc(Cl)n1 [Example C-67] | 0.26 | 
COCCOCc1nc2c(-c3cc(C)nc(Cl)c3)c(-c3ccc(F)cc3)nc(N)n2n1 [Example C-69] | 54.3 | 
Cc1cc(-c2c(-c3ccc(F)cc3)nc(N)n3nc(CO[C@H]4CCOC4)nc23)cc(Cl)n1 [Example C-70] | 0.59 | 
Cc1cc(-c2c(-c3ccc(F)cc3)nc(N)n3nc(CO[C@H]4CCOC4)nc23)cc(C(F)(F)F)n1 [Example C-71] | 0.82 | 
Cc1cc(-c2c(-c3ccc(C)o3)nc(N)n3nc(CO[C@H]4CCOC4)nc23)cc(C(F)(F)F)n1 [Example C-72] | 0.16 | 
Cc1cc(-c2c(-c3ccc(F)cc3)nc(N)n3nc(C#N)nc23)cc(Cl)n1 [Example C-73] | 1.73 | 
Cc1cc(-c2c(-c3ccc(C)o3)nc(N)n3nc(C#N)nc23)cc(C(F)(F)F)n1 [Example C-74] | 1.72 | 
CC(C)(O)c1nc2c(-c3cc(Cl)nc(C(F)(F)F)c3)c(-c3ccc(F)cc3)nc(N)n2n1 [Example C-77] | 6.84 | 
Cc1cc(-c2c(-c3ccc(F)cc3)nc(N)n3nc(C(C)(C)O)nc23)cc(Cl)n1 [Example C-78] | 0.77 | 
N#Cc1nc2c(-c3cc(Cl)nc(C(F)(F)F)c3)c(-c3ccc(F)cc3)nc(N)n2n1 [Example C-79] | 16.9 | 
Cc1cc(-c2c(-c3ccccc3)nc(N)n3nc(C(=O)O)nc23)cc(C(F)(F)F)n1 [Example C-80] | 1.82 | 

Continued, in another order:

IC50 [2] [nM] | Compound | other results
4.93 | COc1ccccc1-c1nc(N)n2nc(C)nc2c1-c1cc(C)nc(C(F)(F)F)c1 [Example C-27] | 
2.99 | CCc1nc2c(-c3cc(C)nc(C(F)(F)F)c3)c(-c3ccccc3OC)nc(N)n2n1 [Example C-30] | 
73.8 | Nc1nc(-c2ccc(F)cc2F)c(-c2ccc3[nH]nnc3c2)c2nc(C(F)(F)F)nn12 [Example C-34] | 
4.13 | CCc1nc2c(-c3cc(C)nc(C(F)(F)F)c3)c(-c3ccccc3F)nc(N)n2n1 [Example C-35] | 
7.92 | CCc1nc2c(-c3cc(C)nc(C(F)(F)F)c3)c(-c3ccc(F)cc3F)nc(N)n2n1 [Example C-36] | 
10.9 | COc1cc(F)ccc1-c1nc(N)n2nc(C)nc2c1-c1cc(C)nc(C(F)(F)F)c1 [Example C-39] | 
44.5 | Cc1cc(-c2c(-c3ccc(F)cc3)nc(N)n3nc(C(F)(F)F)nc23)cc(C(F)(F)F)n1 [Example C-40] | 
0.67 | Cc1cc(-c2c(-c3ccc(F)cc3)nc(N)n3nc(CO)nc23)cc(Cl)n1 [Example C-44] | 
5.36 | COc1ccccc1-c1nc(N)n2nc(CO)nc2c1-c1cc(C)nc(C(F)(F)F)c1 [Example C-50] | 
13.6 | Cc1cc(-c2c(-c3ccc(F)cc3F)nc(N)n3nc(C)nc23)cc(C(F)(F)F)n1 [Example C-51] | 
1.75 | Cc1cc(-c2c(-c3ccccc3F)nc(N)n3nc(CO)nc23)cc(C(F)(F)F)n1 [Example C-52] | 
7.73 | Cc1cc(-c2c(-c3ccc(F)cc3F)nc(N)n3nc(CO)nc23)cc(C(F)(F)F)n1 [Example C-53] | 
0.86 | Cc1cc(-c2c(-c3ccc(F)cc3)nc(N)n3nc(CO)nc23)cc(C)n1 [Example C-55] | 
0.79 | Cc1cc(-c2c(-c3ccc(C)o3)nc(N)n3nc(CO)nc23)cc(C(F)(F)F)n1 [Example C-66] | 
0.64 | COCCOCc1nc2c(-c3cc(C)nc(C(F)(F)F)c3)c(-c3ccc(F)cc3)nc(N)n2n1 [Example C-68] | 
2.03 | Cc1cc(-c2c(-c3ccc(F)cc3)nc(N)n3nc(C(C)(C)O)nc23)cc(C(F)(F)F)n1 [Example C-75] | 
5.61 | Cc1cc(-c2c(-c3ccc(F)cc3)nc(N)n3nc(C#N)nc23)cc(C(F)(F)F)n1 [Example C-76] | 
